Source: publication PMC7923628 (Proceedings of the National Academy of Sciences of the …, 2021)

How the values were obtained:
p27 = experiment: Immunoblot of CRL1/SCF^Skp2 substrate p27 in MV4-11 cells; type: cell-based, human
E3 ROC1–CUL1 CTD = E3 ROC1–CUL1 CTD (Homo sapiens, UniProt Q13616); experiment: FRET K48 di-Ub synthesis with ROC1–CUL1 CTD; type: biochemical; settings: for blocking ubiquitination (in words): Table S2
E3 ROC1–CUL1 CTD complex = E3 ROC1–CUL1 CTD complex (Homo sapiens, UniProt Q13616); experiment: MST ligand binding to ROC1–CUL1 CTD; settings: Table S2
MV4-11 tumors = experiment: AML MV4-11 subcutaneous xenograft in mice; type: in vivo, mouse; settings: G5, 3 mg/kg, oral, QD

Chain of E3 ROC1–CUL1 CTD (Q13616 411-776): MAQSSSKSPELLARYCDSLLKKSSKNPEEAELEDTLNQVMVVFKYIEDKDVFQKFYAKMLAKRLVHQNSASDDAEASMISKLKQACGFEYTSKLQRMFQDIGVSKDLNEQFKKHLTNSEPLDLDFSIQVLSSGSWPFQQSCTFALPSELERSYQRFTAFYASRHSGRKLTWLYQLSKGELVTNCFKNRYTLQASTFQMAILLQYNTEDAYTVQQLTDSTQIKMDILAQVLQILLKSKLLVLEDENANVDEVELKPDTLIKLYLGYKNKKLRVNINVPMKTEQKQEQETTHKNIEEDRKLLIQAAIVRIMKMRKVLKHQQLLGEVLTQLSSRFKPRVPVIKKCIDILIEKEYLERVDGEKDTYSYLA
Chain of E3 ROC1–CUL1 CTD (P62877 whole entry partner): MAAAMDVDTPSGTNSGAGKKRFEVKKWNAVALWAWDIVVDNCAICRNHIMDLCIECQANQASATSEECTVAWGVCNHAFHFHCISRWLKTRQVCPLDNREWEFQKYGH
Chain of E3 ROC1–CUL1 CTD complex (Q13616 411-776): as the sequence (Q13616 411-776) above
Chain of E3 ROC1–CUL1 CTD complex (P62877 whole entry partner): as the sequence (P62877 whole entry partner) above

## NS(=O)(=O)OC[C@@H]1C[C@@H](n2ccc3c(N[C@H]4CCc5ccccc54)ncnc32)C[C@@H]1O [MLN4924]
p27
  effect on p27 level: stabilized

## COc1ccc2c(=O)c(Oc3ccccc3)c(C)oc2c1OC [33-3, 7,8-dimethoxy-2-methyl-3-phenoxy-4H-chromen-4-one]
E3 ROC1–CUL1 CTD
  blocking ubiquitination (in words): completely inactive
E3 ROC1–CUL1 CTD complex
  E3 binding (in words): completely inactive

## CNC(=O)c1cc(Oc2ccc(NC(=O)Nc3ccc(Cl)c(C(F)(F)F)c3)cc2)ccn1 [sorafenib]
MV4-11 tumors
  tumor inhibition: 46.02%

## Cc1oc2c(O)c(O)ccc2c(=O)c1Oc1ccccc1 [33-2, 7,8-dihydroxy-2-methyl-3-phenoxy-4H-chromen-4-one]
E3 ROC1–CUL1 CTD; compared with 33
  drop in IC50: sevenfold

## O=c1c(Oc2ccccc2)c(C(F)(F)F)oc2cc(O)ccc12 [33-7, 7-hydroxy-3-phenoxy-2-(trifluoromethyl)-4H-chromen-4-one]
E3 ROC1–CUL1 CTD
  blocking ubiquitination (in words): inactive
